Results taken from US20030083484A1, “Antisense modulation of short heterodimer partner-1 expression” (priority 2001, published 2003).
Strand notation (5' to 3'): a small letter for the sugar, then the base; units joined by * are phosphorothioate-linked, units joined directly phosphodiester-linked; [ ] holds rarer units or linkages, { } end groups; capitals alone tell only the bases. e = 2'-O-(2-methoxyethyl) (MOE); [5mC] = 5-methylcytosine; d = 2'-deoxy (DNA)

What follows are substances tested on mouse short heterodimer partner-1 mRNA (assay: Inhibition of mouse short heterodimer partner-1 mRNA levels in primary hepatocytes, quantitative real-time PCR). Conditions: averages from two experiments.
Format: cell-based
Set-up: concentration or dose not given beside the values
Description: Primary mouse hepatocytes were prepared from CD-1 mice purchased from Charles River Labs (Wilmington, Mass.) and were routinely cultured in Hepatoyte Attachment Media (Gibco) supplemented with 10% Fetal Bovine Serum (Gibco/Life Technologies, Gaithersburg, Md.), 250 nM dexamethasone (Sigma), and 10 nM bovine insulin (Sigma). Cells were seeded into 96-well plates (Falcon-Primaria #3872) at a density of 10000 cells/well for use in RT-PCR analysis.
Cells were harvested 16-24 hours after oligonucleotide treatment.
Vacuum was applied for 15 seconds. […] The elution step was repeated with an additional 60 μL water.
Total RNA is quantified using RiboGreen™ RNA quantification reagent from Molecular Probes.
Probes and primers to mouse short heterodimer partner-1 were designed to hybridize to a mouse short heterodimer partner-1 sequence, using published sequence information (GenBank accession number L75567, incorporated herein as SEQ ID NO: 10).
All cytidine residues are 5-methylcytidines. […] Data are averages from two experiments. If present, “N.D.” indicates “no data”.

Substance | % INHIB (inhibition of mouse short heterodimer partner-1 mRNA levels)
ISIS 148271: 2′-MOE gapmer, phosphorothioate, AACCCAAGCAGGAAGAGAGG, targets mouse short heterodimer partner-1 RNA (antisense eA*eA*e[5mC]*e[5mC]*e[5mC]*dA*dA*dG*d[5mC]*dA*dG*dG*dA*dA*dG*eA*eG*eA*eG*eG) | at least 50%
ISIS 148284: 2′-MOE gapmer, phosphorothioate, GAGGCACCAGACTCCATTCC, targets mouse short heterodimer partner-1 RNA (antisense eG*eA*eG*eG*e[5mC]*dA*d[5mC]*d[5mC]*dA*dG*dA*d[5mC]*dT*d[5mC]*d[5mC]*eA*eT*eT*e[5mC]*e[5mC]) | at least 50%
148269 (antisense eT*eA*eG*eG*eA*d[5mC]*dA*dT*d[5mC]*d[5mC]*dA*dA*dG*dG*d[5mC]*e[5mC]*eT*e[5mC]*e[5mC]*e[5mC]) [compound 148269] | 59%
148270 (antisense e[5mC]*eA*e[5mC]*eT*e[5mC]*dT*dA*dG*d[5mC]*dA*dG*d[5mC]*d[5mC]*dG*d[5mC]*e[5mC]*eG*e[5mC]*eT*eG) [compound 148270] | 46%
148273 (antisense eT*eG*eG*e[5mC]*eT*dT*d[5mC]*d[5mC]*dT*d[5mC]*dT*dA*dG*d[5mC]*dA*eG*eG*eA*eT*e[5mC]) [compound 148273] | 33%
ISIS 148269: 2′-MOE gapmer, phosphorothioate, TAGGACATCCAAGGCCTCCC, targets mouse short heterodimer partner-1 RNA (antisense eT*eA*eG*eG*eA*d[5mC]*dA*dT*d[5mC]*d[5mC]*dA*dA*dG*dG*d[5mC]*e[5mC]*eT*e[5mC]*e[5mC]*e[5mC]) | at least 50%
ISIS 148272: 2′-MOE gapmer, phosphorothioate, CGGAGCCTCAGCCACCTCGA, targets mouse short heterodimer partner-1 RNA (antisense e[5mC]*eG*eG*eA*eG*d[5mC]*d[5mC]*dT*d[5mC]*dA*dG*d[5mC]*d[5mC]*dA*d[5mC]*e[5mC]*eT*e[5mC]*eG*eA) | at least 50%
148277 (antisense eT*eT*e[5mC]*eA*eG*dG*dT*dA*d[5mC]*dG*d[5mC]*dA*dT*dA*d[5mC]*eT*e[5mC]*e[5mC]*eT*eT) [compound 148277] | 62%
148285 (antisense eA*e[5mC]*eA*eG*eT*dT*dA*dG*dT*dA*dG*dT*dG*dT*dA*e[5mC]*eA*e[5mC]*eT*eG) [compound 148285] | 50%
148276 (antisense eA*eG*eA*eA*eA*dG*dA*d[5mC]*dT*d[5mC]*d[5mC]*dA*dG*dG*d[5mC]*eA*eG*e[5mC]*eG*e[5mC]) [compound 148276] | 56%
148272 (antisense e[5mC]*eG*eG*eA*eG*d[5mC]*d[5mC]*dT*d[5mC]*dA*dG*d[5mC]*d[5mC]*dA*d[5mC]*e[5mC]*eT*e[5mC]*eG*eA) [compound 148272] | 69%
148266 (antisense eA*eG*eG*e[5mC]*eA*dG*dT*dG*dG*d[5mC]*dT*dG*dT*dG*dA*eG*eA*eT*eG*e[5mC]) [compound 148266] | 44%
ISIS 148287: 2′-MOE gapmer, phosphorothioate, GTTCTGTACAAAGTCAGGAG, targets mouse short heterodimer partner-1 RNA (antisense eG*eT*eT*e[5mC]*eT*dG*dT*dA*d[5mC]*dA*dA*dA*dG*dT*d[5mC]*eA*eG*eG*eA*eG) | at least 50%
148268 (antisense eT*eG*e[5mC]*eA*eG*dG*dT*dG*d[5mC]*dG*dG*dT*dG*d[5mC]*dG*eG*eA*eG*e[5mC]*eA) [compound 148268] | 19%
148280 (antisense eG*eT*eG*e[5mC]*e[5mC]*dT*dG*dG*dA*dA*dT*dG*dT*dT*d[5mC]*eT*eT*eG*eA*eG) [compound 148280] | 33%
148267 (antisense e[5mC]*eA*e[5mC]*eA*eG*dA*d[5mC]*dG*d[5mC]*dA*d[5mC]*dA*dG*dG*d[5mC]*e[5mC]*eG*e[5mC]*eT*eG) [compound 148267] | 28%
ISIS 148276: 2′-MOE gapmer, phosphorothioate, AGAAAGACTCCAGGCAGCGC, targets mouse short heterodimer partner-1 RNA (antisense eA*eG*eA*eA*eA*dG*dA*d[5mC]*dT*d[5mC]*d[5mC]*dA*dG*dG*d[5mC]*eA*eG*e[5mC]*eG*e[5mC]) | at least 50%

Substance | % INHIB (inhibition of mouse short heterodimer partner-1 mRNA levels)
148263 (antisense eA*e[5mC]*e[5mC]*eT*eG*d[5mC]*dA*dG*dA*dG*d[5mC]*d[5mC]*d[5mC]*dT*dG*eG*e[5mC]*eA*eT*eG) [compound 148263] | 0%
148281 (antisense eA*eG*eA*eA*eG*dA*dG*dA*dT*d[5mC]*dT*dA*d[5mC]*d[5mC]*dA*eG*eA*eA*eG*eG) [compound 148281] | 48%
148278 (antisense e[5mC]*eA*e[5mC]*eA*eG*dT*dG*d[5mC]*d[5mC]*d[5mC]*dA*dG*dT*dG*dA*eG*e[5mC]*e[5mC]*eT*e[5mC]) [compound 148278] | 36%
148279 (antisense eG*eG*eT*eA*eG*dA*dG*dG*d[5mC]*d[5mC]*dA*dT*dG*dA*dG*eG*eA*eG*eG*eA) [compound 148279] | 43%
ISIS 148262: 2′-MOE gapmer, phosphorothioate, TGACTGGCCGGAGCTCATGG, targets mouse short heterodimer partner-1 RNA (antisense eT*eG*eA*e[5mC]*eT*dG*dG*d[5mC]*d[5mC]*dG*dG*dA*dG*d[5mC]*dT*e[5mC]*eA*eT*eG*eG) | at least 50%
148275 (antisense eT*eG*eT*eG*eG*d[5mC]*d[5mC]*dG*dG*dT*d[5mC]*dT*dG*dA*dT*eG*eG*e[5mC]*eT*eG) [compound 148275] | 28%
ISIS 148285: 2′-MOE gapmer, phosphorothioate, ACAGTTAGTAGTGTACACTG, targets mouse short heterodimer partner-1 RNA (antisense eA*e[5mC]*eA*eG*eT*dT*dA*dG*dT*dA*dG*dT*dG*dT*dA*e[5mC]*eA*e[5mC]*eT*eG) | at least 50%
148265 (antisense eA*eG*eG*eT*eG*d[5mC]*dA*dA*d[5mC]*dG*dG*dG*d[5mC]*d[5mC]*dT*eG*eG*eT*e[5mC]*e[5mC]) [compound 148265] | 41%
148274 (antisense eG*eG*e[5mC]*eA*e[5mC]*d[5mC]*d[5mC]*dT*dG*dG*dG*dT*dA*d[5mC]*d[5mC]*eG*e[5mC]*eT*eG*e[5mC]) [compound 148274] | 22%
148271 (antisense eA*eA*e[5mC]*e[5mC]*e[5mC]*dA*dA*dG*d[5mC]*dA*dG*dG*dA*dA*dG*eA*eG*eA*eG*eG) [compound 148271] | 56%
ISIS 148277: 2′-MOE gapmer, phosphorothioate, TTCAGGTACGCATACTCCTT, targets mouse short heterodimer partner-1 RNA (antisense eT*eT*e[5mC]*eA*eG*dG*dT*dA*d[5mC]*dG*d[5mC]*dA*dT*dA*d[5mC]*eT*e[5mC]*e[5mC]*eT*eT) | at least 50%
148264 (antisense eG*e[5mC]*eA*eT*eA*d[5mC]*dA*dG*dA*dA*dT*dA*dG*dT*d[5mC]*eG*eG*eA*e[5mC]*eG) [compound 148264] | 60%
ISIS 148286: 2′-MOE gapmer, phosphorothioate, AGTCATCAAGGGCTTGCTGG, targets mouse short heterodimer partner-1 RNA (antisense eA*eG*eT*e[5mC]*eA*dT*d[5mC]*dA*dA*dG*dG*dG*d[5mC]*dT*dT*eG*e[5mC]*eT*eG*eG) | at least 50%
148282 (antisense eT*eG*eA*eT*eG*dT*d[5mC]*dA*dA*d[5mC]*dG*dT*d[5mC]*dT*d[5mC]*e[5mC]*e[5mC]*eA*eT*eG) [compound 148282] | 22%
148262 (antisense eT*eG*eA*e[5mC]*eT*dG*dG*d[5mC]*d[5mC]*dG*dG*dA*dG*d[5mC]*dT*e[5mC]*eA*eT*eG*eG) [compound 148262] | 50%
ISIS 148264: 2′-MOE gapmer, phosphorothioate, GCATACAGAATAGTCGGACG, targets mouse short heterodimer partner-1 RNA (antisense eG*e[5mC]*eA*eT*eA*d[5mC]*dA*dG*dA*dA*dT*dA*dG*dT*d[5mC]*eG*eG*eA*e[5mC]*eG) | at least 50%
